The record followed here is patent publication US8420810B2, “Bicyclic heterocyclic compound” (Ono Pharmaceutical, Co., Ltd., priority 2007, dated 2013).

The structures appear in SMILES notation.

The nature of series [1]: Stability test under acidic condition. It is filed as physicochemical. Conditions: ethanol solution / Pharmacopoeia first liquid 1 to 1, 37° C., 24 hours, HPLC. How it is done: A 1 mg/ml ethanol solution of an evaluation compound and the test liquid first liquid of the disintegration test of The Pharmacopoeia of Japan (to be referred to as Pharmacopoeia first liquid hereinafter) were mixed at a ratio of 1 to 1 (0.5 ml for each) and stirred at 37° C. for 24 hours. Amount of the evaluation compound at 0 minute or after 24 hours was determined by an HPLC apparatus. Survival rate (%) of the evaluation compound was calculated by the following formula. Survival rate of evaluation compound (%)=amount of evaluation compound after 24 hours of treatment with Pharmacopoeia first liquid/amount of evaluation compound just after treatment with Pharmacopoeia first liquid×100 <HPLC Conditions> • Apparatus: A 1200 series (manufactured by Agilent Technologies, Inc.), • Column: YMC-Pack C4, A-802, 150×4.6 mm I.D., S-5 μm, 120 A (manufactured by YMC), • Mobile phase: A: water, B: acetonitrile, A/B: 35/65, • Column temperature: room temperature, • Flow rate: 1.0 mL/min.

Another series in a line: Light stability test. It is filed as physicochemical. Conditions: 2500 Lux (D65 lamp), 25° C., HPLC. How it is done: After weighing 5 mg of an evaluation compound, it was put into a test tube made of glass which was then sealed with a stop cock. Said test tube was stored at 25° C. for 11 days or 20 days under irradiation of 2500 Lux (a D65 lamp was used as the light source). The evaluation compound after 11 days or 20 days of irradiation was determined by an HPLC apparatus. Survival rate (%) of the evaluation compound was calculated by the following formula. Survival rate of evaluation compound (%)=amount of evaluation compound after 11 days or 20 days of irradiation (mg)/weighed value of evaluation compound (mg)×100 <HPLC Conditions> • Apparatus: A 1200 series (manufactured by Agilent Technologies, Inc.), • Column: YMC-Pack C4, A-802, 150×4.6 mm I.D., S-5 μm, 120 A (manufactured by YMC), • Mobile phase: A: water, B: acetonitrile, A/B: 35/65, • Column temperature: room temperature, • Flow rate: 1.0 mL/min.

Series [2] addresses T1, human CRF receptor I (Homo sapiens, UniProt P34998).
T1 construct: expressed in transfected cells; host or cells: CHO-K1
T1 sequence (P34998 24-415): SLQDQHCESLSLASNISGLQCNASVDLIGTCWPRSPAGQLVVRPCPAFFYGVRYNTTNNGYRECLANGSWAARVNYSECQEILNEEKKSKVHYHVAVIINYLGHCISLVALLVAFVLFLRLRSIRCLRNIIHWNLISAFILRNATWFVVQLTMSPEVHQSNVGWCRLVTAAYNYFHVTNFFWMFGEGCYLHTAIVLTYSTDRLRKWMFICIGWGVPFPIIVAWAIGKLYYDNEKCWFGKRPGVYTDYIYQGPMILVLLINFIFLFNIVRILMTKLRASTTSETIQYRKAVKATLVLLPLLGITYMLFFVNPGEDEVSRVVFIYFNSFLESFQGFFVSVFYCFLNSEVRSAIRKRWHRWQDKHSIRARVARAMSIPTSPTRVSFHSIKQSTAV
Nature of the series: Binding assay (125I-CRF, membrane fraction). Conditions: 125I-CRF 0.25 nM, membrane fraction of CHO-K1 cells expressing human CRF receptor I, room temperature 2 hours. How it is done: The forced-expression cell strain of the human CRF receptor I (parent strain is CHO-K1 cell) was cultured until the cell was confluent and collected with a scraper. The collected cells were washed twice with PBS, and were suspended with an ice-colded binding assay buffer (Tris-HCl (50 mM, pH 7.0), EDTA (2 mM, pH 8.0), and MgCl2 (10 mM)). After fractured with a dounce-type homogenizer, the suspended cells were centrifuged at 10,000 g, and a membrane fraction was collected. The collected membrane fraction was resuspended with a little amount of the binding assay buffer, thereafter diluted with the binding assay buffer so as to have a concentration of 1 mg/mL. The obtained membrane fraction was used for a binding assay.
^125I-CRF was diluted with the binding assay buffer so as to have a concentration of 0.5 nM, whereby 50 μL of the diluted ^125I-CRF was added to a siliconized 1.5 mL tube. Next, evaluation compounds diluted at appropriate times, DMSO (for general binding), or 100 μM of CRF (for non-specific binding), was added to a […]. Finally, 50 μL of the membrane fraction was added thereto and the reaction was started (final concentration of ^125I-CRF was 0.25 nM). The tube was incubated at room temperature for 2 hours. After the reaction, the tube was centrifuged at 20,000 g in order to collect the membrane fraction. The supernatant was discarded, and the pellet was washed with an ice-colded PBS/0.01% TritonX-100. A membrane binding count was measured using a y counter. The specific binding count was obtained by subtracting the non-specific count from the measured count.

The next series concerns Male Wistar rats. Nature of the series: Water aversive stress model in rats. The note with it: 3 mg/kg, oral once 30 minutes before stress, 60 minutes after loading the water aversive stress. The format is in vivo, rat. How it is done:
Male Wistar rats of 7 weeks of age were used in the test. A platform of 8.5 cm in diameter and 11 cm in height was arranged in the center of a plastic container (30 cm in length, 45 cm in width, 37 cm in height), and water was filled therein to a depth of about 10 cm. Each rat was put on the platform, and the number of evacuations was counted 5, 30 and 60 minutes thereafter. To the vehicle group, 20% Wellsolve (registered trademark) was orally administered, and an evaluation compound having varied concentrations was orally administered to the evaluation compound group, once 30 minutes before loading the water aversive stress. The dose was set to be 5 ml/kg for both cases.

In series [3] the target is T1, human CRF receptor I. Nature of the series: Receptor antagonistic activity (cyclic AMP assay). The note with it: accumulated cyclic AMP, human/rat CRF stimulation, cells expressing human CRF receptor I, 37° C. 15 minutes. It is filed as cell-based. How it is done: The forced expression cell strain of the human CRF receptor I was cultured at 37° C. under 5% carbon dioxide and 95% air by using a Ham's F-12 medium (F-12 nutrient mixture) containing 10% bovine fetal serum and 1% antibiotic substance-antifungal agent. On the previous day before the cyclic AMP was measured, the cells were inoculated into a 96-well plate in an amount of 1×10^4 cell/well. On the measurement day, the cells were washed twice with a Ham's F-12 medium, whereby a solution of Ham's F-12 medium/1 mM 3-isobutyl-1-methylxanthine (assay medium) (178 μL) was added to each well. After the incubation at 37° C. for 15 minutes, the solutions (2 μL) of evaluation compound in various concentrations were added thereto, or DMSO (2 μL) was added to a CRF group and a blank group. An assay medium (20 μL) containing 10 nM human/rat CRF was added to wells of an evaluation compound group and the CRF group. An assay medium (20 μL) containing 0.00001% acetic acid was added to the blank group. Each group was further incubated at 37° C. for 15 minutes. The supernatant was removed and ice-colded to stop the reaction. Note that the reactions of 2 wells were the same in all reactions. The measurement for accumulated cyclic AMP amount in cells was carried out by using a cyclic AMP Biotrak enzyme immunoassay system (manufactured by GE Healthcare). The accumulated cyclic AMP amounts were calculated by subtracting mean values of corresponding 2 wells in the blank group from that of 2 wells. The IC50 values were calculated with non-linear regression analysis by defining logarithm concentration of the evaluation compound as independent variable and an accumulated cyclic AMP amount as dependent variable.

For `CCC(CC)c1cc(C)n2nc(-c3ccc(OC)cc3C)n(C)c(=O)c12` [Example 8(1), 5-(1-ethylpropyl)-2-(4-methoxy-2-methylphenyl)-3,7-dimethylpyrrolo[2,1-f][1,2,4]triazin-4(3H)-one], the residual ratio in series [1] amounted to 90%. Moreover, the “residual ratio after 20 days” value in the series “Light stability test” came out at 93%.
With `CCn1c(-c2ccc(SC)cc2Cl)nn2c(C)cc(C(C)C)c2c1=O` [Example 14(2), 2-[2-chloro-4-(methylthio)phenyl]-3-ethyl-5-isopropyl-7-methylpyrrolo[2,1-f][1,2,4]triazin-4(3H)-one], the IC50 worked out at 4.5 nM on human CRF receptor I [2] and 2.1 nM at human CRF receptor I [3]. The “increase of the number of evacuations for the vehicle group” value in the series on Male Wistar rats is reported as “significantly inhibited”.

A word on the IC50: it is the concentration at which inhibition is half-maximal. The low end stands for higher potency, the high end for lower potency.
